# According to ChEMBL document CHEMBL1275407, “Treatment of scedosporiosis with voriconazole: clinical experience with 107 patients” (2008):
# Key:
# Type in all cases: functional
# [1] = tested on: Scedosporium apiospermum; test: Antifungal activity against Scedosporium apiospermum isolated from voriconazole treated scedosporiosis patient by broth microdilution method
# [2] = tested on: Lomentospora prolificans; test: Antifungal activity against Scedosporium prolificans isolated from voriconazole treated scedosporiosis patient by broth microdilution method
# [3] = tested on: Scedosporium apiospermum; test: Antifungal activity against Scedosporium apiospermum isolated from compound treated scedosporiosis patient by broth microdilution method
# [4] = tested on: Lomentospora prolificans; test: Antifungal activity against Scedosporium prolificans isolated from compound treated scedosporiosis patient by broth microdilution method
MIC50 [1] [mg/L],MIC90 [1] [mg/L],MIC50 [2] [mg/L],MIC90 [2] [mg/L],SMILES,MIC50 [3] [mg/L],MIC90 [3] [mg/L],MIC50 [4] [mg/L],MIC90 [4] [mg/L]
4,> 8,8,16,C[C@@H]1[C@H](O)[C@@H](C)/C=C/C=C/C=C/C=C/C=C/C=C/C=C/[C@H](O[C@@H]2O[C@H](C)[C@@H](O)[C@H](N)[C@@H]2O)C[C@@H]2O[C@](O)(C[C@@H](O)C[C@@H](O)[C@H](O)CC[C@@H](O)C[C@@H](O)CC(=O)O[C@H]1C)C[C@H](O)[C@H]2C(=O)O [AMPHOTERICIN B],–,–,–,–
0.5,2,16,16,CCC(C)n1ncn(-c2ccc(N3CCN(c4ccc(OCC5COC(Cn6cncn6)(c6ccc(Cl)cc6Cl)O5)cc4)CC3)cc2)c1=O (configuration not stated) [ITRACONAZOLE],–,–,–,–
–,–,–,–,C[C@@H](c1ncncc1F)[C@](O)(Cn1cncn1)c1ccc(F)cc1F [VORICONAZOLE],0.25,1,4,8
